Legend:
[1] = tested on: inflammatory cytokines in the lungs; assay: Ascaris suum challenge model; assay type: in vivo, cynomolgus monkeys; conditions: nebulized 20 mg/day or 15 mg/kg/d for 14 days; during treatment and 28 days after cessation
[2] = Phase 1 single and multiple ascending dose trial of inhaled CA28; assay type: in vivo, human; conditions: for adverse event: one subject
Description: In the single ascending dose part of the trial, 16 subjects were enrolled in four cohorts of four subjects each.
Four subjects were enrolled in the first cohort of the multiple ascending dose part of the trial. These subjects were to receive 14 consecutive days of treatment with a 60 mg/day dose of the drug. […] The trial was paused and subsequently resumed, with subjects receiving 30 mg/day. […] The trial was then terminated.

[3] = tested on: RBCs from a patient with PNH; assay: Modified Ham's test with flow cytometry for CD59 and C3d; assay type: cell-based, human
Description: A modified Ham's test was performed to assess the ability of compstatin analogs to protect PNH RBCs from complement-mediated lysis. […] Exposure to heat inactivated human serum was used as a control representing no significant complement-mediated lysis as complement is inactivated by heat. Exposure to acidified human serum and magnesium (Mg^2+) in the absence of complement inhibitors (pane labeled Mg^2+) was used as a control representing maximum lysis.
Following incubation, cells were stained with antibodies to CD59 and C3d. CD59 level permitted the classification of the PNH RBCs as Type I, Type II, or Type III. Staining for C3d, a product of C3 activation and cleavage was used as a marker of C3 and C3 activation product deposition (loading). Flow cytometric analysis was performed to assess CD59 and C3d on RBC surfaces and to quantify the percentages of Type I, Type II, and Type III cells present in various samples.

[4] = molecular target: T1, complement component C3 (human) (human, UniProt P01024 23-1663); assay: cell-based or functional assay
[5] = molecular target: T1, complement component C3 (human); assay: cell-based or functional assay; remark: listed apart in the source
[6] = molecular target: T1, complement component C3 (human); assay: cell-based or functional assay; remark: listed apart in the source
[7] = molecular target: T1, complement component C3 (human); assay: cell-based or functional assay; remark: listed apart in the source
[8] = molecular target: T1, complement component C3 (human); assay: cell-based or functional assay; remark: listed apart in the source

Molecule: CC[C@H](C)[C@H](NC(C)=O)C(=O)N[C@H]1CSSC[C@@H](C(=O)N[C@H](C(N)=O)[C@@H](C)O)NC(=O)[C@H](CCCNC(=N)N)NC(=O)[C@H](Cc2cnc[nH]2)NC(=O)[C@H](C)NC(=O)CNC(=O)[C@H](Cc2c[nH]c3ccccc23)NC(=O)[C@H](CC(=O)O)NC(=O)[C@H](CCC(N)=O)NC(=O)[C@H](Cc2cn(C)c3ccccc23)NC(=O)[C@H](C(C)C)NC1=O [CA28]
- levels of inflammatory cytokines in broncheoalveolar lavage fluid after allergen challenge [1]: had a pharmacological effect
- adverse event ([2]; 30 mg/day inhaled, after 10 days): signs and symptoms consistent with a potential bacterial infection
- adverse event ([2]; 60 mg/day inhaled, after nine days): signs and symptoms consistent with a potential bacterial infection
- safety and tolerability ([2]; single inhaled dose 20, 60, 150 or 350 mg): well tolerated
- protection from complement-mediated lysis ([3]; 100 ug/ml or more): complete protection from complement-mediated lysis
- % C3 (Type I) ([3]; 1 micrograms/ml): 1.7%
- % C3 (Type III) ([3]; 1 micrograms/ml): 1.2%
- % C3 (Type III) ([3]; 4 micrograms/ml): 0.83%
- % C3 (Type III) ([3]; 8 micrograms/ml): 0.7%
- Type II % ([3]; 8 micrograms/ml): 66%
- % C3 (Type III) ([3]; 15 micrograms/ml): 0.98%
- Type I % ([3]; 15 micrograms/ml): 15%
- % C3 (Type II) ([3]; 25 micrograms/ml): 9.3%
- % C3 (Type III) ([3]; 25 micrograms/ml): 0.75%
- Type I % ([3]; 25 micrograms/ml): 14.96%
- % C3 (Type I) ([3]; 100 micrograms/ml): 0.08%
- % C3 (Type II) ([3]; 100 micrograms/ml): 0.92%
- % C3 (Type III) ([3]; 100 micrograms/ml): 0.1%
- Type III % ([3]; 100 micrograms/ml): 37.96%
- C3 loading on PNH red cells ([3]; 100 micrograms/ml compound or higher): virtually no C3 loading
- % C3 (Type I) ([3]; 500 micrograms/ml): 0.14%
- % C3 (Type II) ([3]; 500 micrograms/ml): 0.63%
- % C3 (Type III) ([3]; 500 micrograms/ml): 0.09%

B1: CA28-AEEAc-Lys(mPEG40K-hexanoyl) (peptide)
peptide: ICVWQDWGAHRCTK
modifications: N-terminal acetyl; 1-methyl-tryptophan at position 4; disulfide bond Cys2-Cys12; AEEAc spacer between Thr13 and Lys; linear monomethoxy 40 kD PEG (NOF SUNBRIGHT ME-400HS, hexanoyl linkage) on the Lys side chain; C-terminal amide
- IC50 (read off the curve): % inhibition of classical pathway complement activation (C3b deposition ELISA, human plasma) [4]: ~700 nM

B2: CA28-AEEAc-Lys(mPEG40K-carbonyl) (peptide)
peptide: ICVWQDWGAHRCTK
modifications: N-terminal acetyl; 1-methyl-tryptophan at position 4; disulfide bond Cys2-Cys12; AEEAc spacer between Thr13 and Lys; linear monomethoxy 40 kD PEG (NOF SUNBRIGHT ME-400TS, carbonyl linkage) on the Lys side chain; C-terminal amide
- IC50 (read off the curve): % inhibition of classical pathway complement activation (C3b deposition ELISA, human plasma) [4]: ~700 nM

B3: CA28-AEEAc-Lys-(PEG40k) (peptide)
peptide: ICVWQDWGAHRCTK
modifications: N-terminal acetyl; 1-methyl-tryptophan at position 4; disulfide bond Cys2-Cys12; AEEAc spacer between Thr13 and Lys; linear monomethoxy 40 kD PEG (NOF SUNBRIGHT ME-400GS, glutaryl linkage) on the Lys side chain; C-terminal amide
- IC50, classical complement inhibition assay (C3b deposition ELISA, human plasma) [5]: 1290 nM
- IC50 (read off the curve): % inhibition of classical pathway complement activation (C3b deposition ELISA, human plasma) [4]: ~700 nM

B4: CA28-2GS-BF (peptide)
peptide: ICVWQDWGAHRCTK
modifications: not fully specified; N-terminal acetyl; 1-methyl-tryptophan at position 4; disulfide bond Cys2-Cys12; AEEAc spacer between Thr13 and Lys; Lys side chain coupled to one end of a bifunctional linear 40 kD PEG of the GS type (glutaryl, amide plus ester linkage); C-terminal amide
- Q1 (Type III cells with C3d deposition) % Parent, modified Ham's test, at 50 ug/ml [6]: 0.01%
- Q2 (Type I and II cells with C3d deposition) % Parent, modified Ham's test, at 50 ug/ml [6]: 0.01%
- Q3 (Type III cells without significant C3d deposition) % Parent, modified Ham's test, at 50 ug/ml [6]: 61.5%
- Q4 (Type I and II cells without significant C3d deposition) % Parent, modified Ham's test, at 50 ug/ml [6]: 38.5%

B5: (CA28-AEEAc)8-PEG40k (peptide)
peptide: ICVWQDWGAHRCTK
modifications: N-terminal acetyl; 1-methyl-tryptophan at position 4; disulfide bond Cys2-Cys12; AEEAc spacer between Thr13 and Lys; Lys side chain coupled to one arm of an eight-arm 40 kD PEG (NOF SUNBRIGHT HGEO-400GS); C-terminal amide
- IC50, classical complement inhibition assay, as a function of CA28 moiety concentration [5]: 1930 nM
- IC50 on a molar basis of the compound, classical complement inhibition assay [7]: ~260 nM

B6: CA28-AEEAc-Lys-(PEG30k) (peptide)
peptide: ICVWQDWGAHRCTK
modifications: not fully specified; N-terminal acetyl; 1-methyl-tryptophan at position 4; disulfide bond Cys2-Cys12; AEEAc (8-amino-3,6-dioxaoctanoyl) spacer between Thr13 and Lys; linear monofunctional 30 kD PEG (NOF SUNBRIGHT ME-300GS) on the Lys side chain; C-terminal amide
- IC50, classical complement inhibition assay (C3b deposition ELISA, human plasma) [5]: 1260 nM

B7: CA28-2TS-BF (peptide)
peptide: ICVWQDWGAHRCTK
modifications: not fully specified; N-terminal acetyl; 1-methyl-tryptophan at position 4; disulfide bond Cys2-Cys12; AEEAc spacer between Thr13 and Lys; Lys side chain coupled by a carbamate to one end of a bifunctional linear 40 kD PEG of the TS type; C-terminal amide
- IC50 (read off the curve): % inhibition of alternative pathway complement activation (LPS-coated plate, C3b deposition ELISA, human plasma) [B] [8]: ~400 nM

B8: CA28-AEEAc-Lys(mPEG40K-succinyl) (peptide)
peptide: ICVWQDWGAHRCTK
modifications: N-terminal acetyl; 1-methyl-tryptophan at position 4; disulfide bond Cys2-Cys12; AEEAc spacer between Thr13 and Lys; linear monomethoxy 40 kD PEG (NOF SUNBRIGHT ME-400CS, succinyl linkage) on the Lys side chain; C-terminal amide
- IC50 (read off the curve): % inhibition of classical pathway complement activation (C3b deposition ELISA, human plasma) [4]: ~700 nM
